PubChem BioAssay (NCI)
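Protocol summary: plate cells (96-well), add compound at 5 concentrations, incubate 48 h, interpolate endpoints linearly. The concentration for 50% growth inhibition is given as GI50. TGI: concentration producing complete growth inhibition.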

Columns and labels:
Assay in all cases: inhibition of tumour cell growth, NCI panel, 48 h
SF-268 CNS = tested on: SF-268 CNS
HOP-62 NSCLC = tested on: HOP-62 NSCLC
OVCAR-3 ovarian = tested on: OVCAR-3 ovarian
SK-MEL-5 melanoma = tested on: SK-MEL-5 melanoma
M14 melanoma = tested on: M14 melanoma
K-562 leukemia = tested on: K-562 leukemia
SR leukemia = tested on: SR leukemia
NCI-H522 lung = tested on: NCI-H522 lung
NCI/ADR-RES ovarian = tested on: NCI/ADR-RES ovarian
MDA-MB-435 = tested on: MDA-MB-435

Q: `O=C(NC1CCCC1=O)c1ccccc1` (stereo not given) was tested. Which TGI (SF-268 CNS) did it give?
A: > 100 µM

Q: And the TGI (HOP-62 NSCLC)?
A: > 100 µM

Q: What about the TGI (OVCAR-3 ovarian) of the same compound?
A: > 100 µM

Q: And the TGI (SK-MEL-5 melanoma)?
A: > 100 µM

Q: What about the TGI (M14 melanoma) of the same compound?
A: > 100 µM

Q: And the TGI (K-562 leukemia)?
A: > 100 µM

Q: What about the TGI (SR leukemia) of the same compound?
A: > 100 µM

Q: Which results are given for `Nc1ccc(-c2nc3ccccc3[nH]2)c2ccccc12`?
A: GI50 (NCI-H522 lung): 3.14 µM; TGI (NCI-H522 lung): 17.1 µM; GI50 (SF-268 CNS): 5.93 µM; TGI (SF-268 CNS): > 100 µM; GI50 (HOP-62 NSCLC): 6.16 µM; TGI (HOP-62 NSCLC): > 100 µM; GI50 (NCI/ADR-RES ovarian): 2.08 µM; TGI (NCI/ADR-RES ovarian): 7.37 µM; GI50 (OVCAR-3 ovarian): 2.5 µM; TGI (OVCAR-3 ovarian): > 41.4 µM; GI50 (SK-MEL-5 melanoma): 1.65 µM; TGI (SK-MEL-5 melanoma): 8.5 µM; GI50 (M14 melanoma): 2.73 µM; TGI (M14 melanoma): 17.6 µM; GI50 (MDA-MB-435): 0.198 µM; TGI (MDA-MB-435): 0.812 µM; GI50 (K-562 leukemia): 2.54 µM; TGI (K-562 leukemia): > 100 µM

Q: For `C=C1CCC2[C@@H](CCC3[C@]2(C)CCC[C@]3(C)C(=O)OC)[C@@H]1CC=O` (stereo not given in full), which GI50 (NCI-H522 lung) is on record?
A: > 100 µM

Q: What about the TGI (NCI-H522 lung) of the same compound?
A: > 100 µM

Q: What about the TGI (SF-268 CNS) of the same compound?
A: > 100 µM

Q: And the GI50 (HOP-62 NSCLC)?
A: > 100 µM

Q: What about the TGI (HOP-62 NSCLC) of the same compound?
A: > 100 µM

Q: What about the TGI (OVCAR-3 ovarian) of the same compound?
A: 41.9 µM

Q: And the TGI (SK-MEL-5 melanoma)?
A: 32.5 µM

Q: What about the TGI (M14 melanoma) of the same compound?
A: 40.2 µM

Q: What about the GI50 (K-562 leukemia) of the same compound?
A: 26 µM

Q: And the TGI (K-562 leukemia)?
A: 77.4 µM

Q: What does the source list for `Fc1cccc(C2SCc3nc4ccccc4n32)c1F` (stereo not given)?
A: TGI (NCI-H522 lung): > 100 µM; TGI (SF-268 CNS): > 100 µM; TGI (HOP-62 NSCLC): > 100 µM; TGI (OVCAR-3 ovarian): > 100 µM; TGI (SK-MEL-5 melanoma): 53.2 µM; TGI (M14 melanoma): > 100 µM; TGI (K-562 leukemia): > 100 µM; TGI (SR leukemia): > 100 µM

Q: How did the GI50 (NCI-H522 lung) turn out when `O=C([CH-]C(=O)c1ccccc1)c1ccccc1.O=C([CH-]C(=O)c1ccccc1)c1ccccc1.[OH-].[OH-].[Ti+4]` was run?
A: 24.2 µM

Q: And the TGI (NCI-H522 lung)?
A: 69.7 µM

Q: And the GI50 (SF-268 CNS)?
A: 92.5 µM

Q: What about the TGI (SF-268 CNS) of the same compound?
A: > 100 µM

Q: What about the GI50 (HOP-62 NSCLC) of the same compound?
A: 27.1 µM

Q: What about the TGI (HOP-62 NSCLC) of the same compound?
A: > 100 µM

Q: And the GI50 (OVCAR-3 ovarian)?
A: 51.1 µM

Q: And the TGI (OVCAR-3 ovarian)?
A: > 100 µM

Q: What about the GI50 (SK-MEL-5 melanoma) of the same compound?
A: 31.2 µM

Q: And the TGI (SK-MEL-5 melanoma)?
A: > 100 µM

Q: What about the GI50 (M14 melanoma) of the same compound?
A: 36.2 µM

Q: What about the TGI (M14 melanoma) of the same compound?
A: > 100 µM

Q: And the GI50 (K-562 leukemia)?
A: 63.3 µM

Q: And the TGI (K-562 leukemia)?
A: > 100 µM

Q: How did the TGI (NCI-H522 lung) turn out when `CN(C)c1ccc(/C=C2\C=Cc3ccccc32)cc1` was run?
A: 52.3 µM

Q: And the TGI (SF-268 CNS)?
A: > 100 µM

Q: What about the TGI (HOP-62 NSCLC) of the same compound?
A: > 100 µM

Q: What about the TGI (OVCAR-3 ovarian) of the same compound?
A: > 100 µM

Q: What about the TGI (SK-MEL-5 melanoma) of the same compound?
A: > 100 µM

Q: And the TGI (M14 melanoma)?
A: > 100 µM

Q: What about the TGI (K-562 leukemia) of the same compound?
A: > 100 µM

Q: And the TGI (SR leukemia)?
A: > 100 µM

Q: Which TGI (NCI-H522 lung) does the source give for `c1ccc(P(=Nc2ccccc2N=P(c2ccccc2)(c2ccccc2)c2ccccc2)(c2ccccc2)c2ccccc2)cc1` here?
A: 2.24 µM

Q: And the TGI (SF-268 CNS)?
A: > 100 µM

Q: And the TGI (HOP-62 NSCLC)?
A: 2.73 µM

Q: And the TGI (OVCAR-3 ovarian)?
A: 0.783 µM

Q: What about the TGI (SK-MEL-5 melanoma) of the same compound?
A: 1.95 µM

Q: And the TGI (M14 melanoma)?
A: 15.7 µM

Q: And the TGI (K-562 leukemia)?
A: 11.2 µM

Q: How did the TGI (NCI-H522 lung) turn out when `COc1cc2c(cc1OC)C1(c3ccc(Cl)cc3)ON=C(c3ccccc3)N1CS2` (stereo not given) was run?
A: > 100 µM

Q: What about the TGI (SF-268 CNS) of the same compound?
A: > 100 µM

Q: And the TGI (HOP-62 NSCLC)?
A: > 100 µM

Q: And the TGI (OVCAR-3 ovarian)?
A: > 100 µM

Q: And the TGI (SK-MEL-5 melanoma)?
A: > 100 µM

Q: What about the TGI (M14 melanoma) of the same compound?
A: > 100 µM

Q: What about the TGI (K-562 leukemia) of the same compound?
A: > 100 µM

Q: What about the TGI (SR leukemia) of the same compound?
A: > 100 µM

Q: `COc1ccc(C=O)c(NC(=O)C(C)C)c1` was tested. Which TGI (NCI-H522 lung) did it give?
A: 46.3 µM

Q: What about the TGI (SF-268 CNS) of the same compound?
A: > 100 µM

Q: And the TGI (OVCAR-3 ovarian)?
A: > 100 µM

Q: What about the TGI (SK-MEL-5 melanoma) of the same compound?
A: > 10 µM

Q: What about the TGI (M14 melanoma) of the same compound?
A: > 100 µM

Q: And the TGI (K-562 leukemia)?
A: > 100 µM

Q: Which results are given for `COc1ccc(/C=N/NC(=O)Cn2c(-c3ccc(S(C)(=O)=O)cc3)nc3cc(Cl)ccc32)cc1`?
A: GI50 (NCI-H522 lung): 0.291 µM; TGI (NCI-H522 lung): 1.7 µM; GI50 (SF-268 CNS): 2.76 µM; TGI (SF-268 CNS): > 50 µM; GI50 (HOP-62 NSCLC): 1.42 µM; TGI (HOP-62 NSCLC): > 50 µM; GI50 (NCI/ADR-RES ovarian): 0.956 µM; TGI (NCI/ADR-RES ovarian): > 50 µM; GI50 (OVCAR-3 ovarian): 0.367 µM; TGI (OVCAR-3 ovarian): > 50 µM; GI50 (SK-MEL-5 melanoma): 0.964 µM; TGI (SK-MEL-5 melanoma): 8.55 µM; GI50 (M14 melanoma): 0.505 µM; TGI (M14 melanoma): > 50 µM; GI50 (K-562 leukemia): 0.343 µM; TGI (K-562 leukemia): > 50 µM

Q: `COc1cc2nc(NCCCCCNC(=O)c3ccco3)nc(N)c2cc1OC` was tested. Which TGI (NCI-H522 lung) did it give?
A: 96.4 µM

Q: What about the TGI (SF-268 CNS) of the same compound?
A: > 100 µM

Q: And the TGI (HOP-62 NSCLC)?
A: 61.3 µM

Q: And the TGI (OVCAR-3 ovarian)?
A: 62.5 µM

Q: And the TGI (SK-MEL-5 melanoma)?
A: 34.4 µM

Q: And the TGI (M14 melanoma)?
A: 34.8 µM

Q: What about the TGI (K-562 leukemia) of the same compound?
A: > 100 µM

Q: Which TGI (NCI-H522 lung) does the source give for `CC1(C)OCC(C(O)C2OC(C)(C)OC2/C=N\O)O1` (stereo not given) here?
A: > 100 µM

Q: What about the TGI (SF-268 CNS) of the same compound?
A: > 100 µM

Q: And the TGI (HOP-62 NSCLC)?
A: > 100 µM

Q: And the TGI (OVCAR-3 ovarian)?
A: > 100 µM

Q: And the TGI (SK-MEL-5 melanoma)?
A: > 100 µM

Q: What about the TGI (K-562 leukemia) of the same compound?
A: > 100 µM

Q: For `CCO/C=C1\N=C(c2ccccc2Br)OC1=O`, which TGI (NCI-H522 lung) is on record?
A: > 100 µM

Q: And the TGI (SF-268 CNS)?
A: > 100 µM

Q: What about the TGI (HOP-62 NSCLC) of the same compound?
A: > 100 µM

Q: What about the TGI (OVCAR-3 ovarian) of the same compound?
A: > 100 µM

Q: And the TGI (M14 melanoma)?
A: > 100 µM

Q: And the TGI (K-562 leukemia)?
A: > 100 µM

Q: With `N#Cc1ccc(N=Cc2c([O-])ccc3ccccc23)cc1.[C-]#[O+].[C-]#[O+].[Ir]` as the compound, how does the GI50 (NCI-H522 lung) read?
A: 1.13 µM

Q: What about the TGI (NCI-H522 lung) of the same compound?
A: 2.45 µM

Q: And the GI50 (SF-268 CNS)?
A: 14.8 µM

Q: And the TGI (SF-268 CNS)?
A: 29.2 µM

Q: What about the GI50 (HOP-62 NSCLC) of the same compound?
A: 20.6 µM

Q: What about the TGI (HOP-62 NSCLC) of the same compound?
A: 42 µM

Q: What about the GI50 (OVCAR-3 ovarian) of the same compound?
A: 4.02 µM

Q: And the TGI (OVCAR-3 ovarian)?
A: 15.1 µM

Q: And the GI50 (SK-MEL-5 melanoma)?
A: 13.4 µM

Q: And the TGI (SK-MEL-5 melanoma)?
A: 26.2 µM

Q: And the GI50 (M14 melanoma)?
A: 5.22 µM

Q: And the TGI (M14 melanoma)?
A: 19 µM

Q: What about the GI50 (K-562 leukemia) of the same compound?
A: 8.99 µM

Q: And the TGI (K-562 leukemia)?
A: 28.9 µM

Q: What about the GI50 (SR leukemia) of the same compound?
A: 4.17 µM

Q: And the TGI (SR leukemia)?
A: 20.6 µM

Q: What does the source list for `COCCOCOc1ccc(OCOCCOC)c2c1C(=O)c1ccccc1C2=O`?
A: TGI (SF-268 CNS): > 100 µM; TGI (HOP-62 NSCLC): > 100 µM; TGI (OVCAR-3 ovarian): > 100 µM; TGI (SK-MEL-5 melanoma): > 100 µM; TGI (M14 melanoma): > 100 µM; TGI (K-562 leukemia): > 100 µM

Q: `CCOC1=C2N=C(Cc3ccccc3F)N=C2C(=O)c2ccccc21` was tested. Which TGI (NCI-H522 lung) did it give?
A: > 100 µM

Q: And the TGI (SF-268 CNS)?
A: > 100 µM

Q: What about the TGI (HOP-62 NSCLC) of the same compound?
A: > 100 µM

Q: And the TGI (OVCAR-3 ovarian)?
A: > 100 µM

Q: What about the TGI (M14 melanoma) of the same compound?
A: > 100 µM

Q: And the TGI (K-562 leukemia)?
A: > 100 µM

Q: And the TGI (SR leukemia)?
A: > 100 µM
